Test results: patent US20230405002A1, “COMBINATIONS OF DIACYLGLYCEROL ACYLTRANSFERASE 2 INHIBITORS AND ACETYL-COA CARBOXYLASE INHIBITOR” (Pfizer Inc., priority 2020, published 2023)

How the values were obtained:
[1] = system: Western diet fed Sprague Dawley rats; assay: Compound A / Compound D study in Western diet fed rats: hepatic triglyceride (steatosis); assay type: in vivo, rat; conditions: relative to vehicle administered Western diet fed rats
Method: (§1) A randomized, vehicle-controlled, 8-parallel arm study was conducted in male Sprague-Dawley rats (Charles River (Boston, MA)) to obtain circulating and hepatic TG levels. Standard laboratory conditions were used to house 96 rats (˜200 g); they were double housed and kept under 12:12-hour reverse light-dark schedule (lights off at 8:00 AM). Rats were randomized into chow or Western diet groups and dose groups upon arrival and were given a 14-day lead-in period on either standard rat chow or Western diet prior to the start of the study. Standard Laboratory Rodent chow diet, 5053, was from LabDiet (PMI, St Louis, Missouri). Western Diet, D12079Bi, was from Research Diets (New Brunswick, NJ).
For these studies, vehicle was prepared to make a 0.5% (wt/volume) of methyl cellulose (MC, Sigma Aldrich, 274429) in deionized water.
On the last day of the study (Day 28), rats were sacrificed for tissue collection after a 4 hour fast, 2 hours post-dose: two hours post-dose, blood for determining plasma analytes was collected via lateral tail vein and then the animals were sacrificed by CO2 asphyxiation. Blood was transferred to BD Microtainer tubes coated with K2EDTA (PN365974), centrifuged at 4° C. and the plasma transferred to a 96-well microtitre plate and stored at −20° C. Livers were rapidly removed, freeze-clamped in a Wollenberg clamp pre-cooled in liquid N2 individually wrapped in aluminum foil and subsequently stored at −80° C.
Tissue pulverization: Frozen livers were rapidly pulverized on an aluminum block cooled in liquid N2, ensuring the tissue remained frozen throughout the pulverization. The pulverized tissues were transferred and stored in 7 mL polypropylene conical tubes at −80° C. until analysis.
Extraction for hepatic triglyceride: Approximately 50 to 100 mg of pulverized tissue was added to a 2 mL lysing matrix D tube (MP Bio) containing 800 μL ice cold 1:1 CHCl3:MEOH. Samples were immediately extracted at 4° C. using Qiagen Tissue Lyser II (Qiagen Cat No. 85300) for 4 minutes at 30 Hz. The homogenate was then transferred to 13×100 mm glass tubes and placed on ice. The lysis tubes were then rinsed with 800 μL of 1:1 CHCl3:MeOH, vortexed for 30 seconds and added to the 13×100 mm glass tubes. While on ice, 2.4 ml of 100% CHCl3 was added to all glass vials to bring the ratio of CHCl3:MeOH to 4:2. Samples were then placed in the −20° C. freezer overnight. On the following day, 1.75 mL 1 M KCl H2O was added to bring the ratio to 4:2:1.75 ratio CHCl3:MeOH:H2O. Samples were then vortexed for 30 seconds and centrifuged at 1500 rpm×15 min., at 4° C. After centrifugation, the organic phase was transferred to a fresh 13×100 mm extraction tube, dried down at 37° C. under N2 and re-suspended in 750 μL CHCl3. […]

SREBP-1 = assay: Compound A / Compound D study in Western diet fed rats: nuclear SREBP-1 localization (Western blot); assay type: in vivo, rat; conditions: high dose; relative to vehicle treated Western diet fed rats
Method: as §1
Nuclear and Membrane fractions were prepared by ultracentrifugation using standard methods from a portion of the pulverized liver samples, that were pooled per treatment group. Samples from the nuclear extract and the membrane fractions were analyzed by Western blotting for SREBP1. Western blots for Calnexin was used as a marker for the membrane fraction, actin as a marker for total sample loading, and Histone 2B as a marker for the nuclear fraction. Nuclear SREBP1 levels were quantified using relative units and normalized to Histone 2B to control for sample loss during the nuclear fractionation and gel loading.

[2] = system: CDAHFD fed male Wistar-Han rats; assay: CDAHFD rat study: liver stiffness by shearwave elastography; assay type: in vivo; conditions: Compound A 5 mg/kg, Compound D 30 mg/kg twice daily, 6 weeks
From the text: (§2) Standard laboratory conditions were used to house 60 rats (˜200 g); they were double housed and kept under 12:12-hour reverse light-dark schedule (lights off at 8:00 AM). Rats were fed choline deficient and high fat diet (CDAHFD) beginning 6-weeks prior to initiation of the study. […] Animals (n=12) remaining on normal chow throughout the study and administered twice-daily vehicle were used as a control group. Blood samples were collected prior to starting compound administration and 3- and 6-week post compound administration for the assessment of circulating markers. Shearwave elastography (Aixplorer Ultimate imager, Supersoinc imagine) measurements were made at Week −3, Week 0 (prior to 1st dose), Week 3 and Week 6 to assess inflammation and fibrosis progression over time. Histology was assessed following 6-weeks of drug administration which corresponded to 12 weeks on the CDAHFD. Results are provided as an average of animals per each dosing group.

αSMA and COL1A1 = assay: CDAHFD rat study: hepatic αSMA and COL1A1 gene expression (qPCR); assay type: in vivo; conditions: Compound A 5 mg/kg, Compound D 30 mg/kg twice daily, 6 weeks
From the text: as §2
Following the 12-weeks on CDAHFD, the animals were sacrificed by CO2 asphyxiation. The right lateral, medial and left lateral lobes of the liver were harvested. […] A portion of the pulverized liver sample from each animal was processed and analyzed for gene expression markers of fibrogenesis. Rat taqman probes against αSMA and COL1A1 were all assessed using Actb as housekeeping gene on qPCR.

[3] = high dose (Compound A 10 mg/kg QD, Compound D 30 mg/kg BID)
[4] = low dose (Compound A 1 mg/kg QD, Compound D 5 mg/kg BID)

Compound | reduction in steatosis (hepatic triglyceride) [1, 3] [%] | reduction in steatosis (hepatic triglyceride) [1, 4] [%] | nuclear SREBP-1 localization (SREBP-1) | liver stiffness (shearwave elastography) [2] | hepatic αSMA and COL1A1 gene expression (αSMA and COL1A1)
CCOc1cccnc1Oc1cncc(-c2ncc(C(=O)N[C@H]3CCOC3)cn2)c1 [Compound D, (S)-2-(5-((3-ethoxypyridin-2-yl)oxy)pyridin-3-yl)-N-(tetrahydrofuran-3-yl)pyrimidine-5-carboxamide] | 30 | 25 | reduced SREBP-1 nuclear localization | reduced liver stiffness | reduced hepatic αSMA and COL1A1 gene expression
COc1cc(C(=O)N2CCC3(CC2)CC(=O)c2c(cnn2C(C)C)C3)cc(-c2ccc(C(=O)O)cc2)n1 [Compound A, 4-(4-(1-isopropyl-7-oxo-1,4,6,7-tetrahydrospiro[indazole-5,4′-piperidine]-1′-carbonyl)-6-methoxypyridin-2-yl)benzoic acid] | 53 | 36 | increased nuclear localization of SREBP-1 | reduced liver stiffness | reduced hepatic αSMA and COL1A1 gene expression
